Tests used:
[1] = test system: SCD mutation (β-globin gene), bulk mouse bone marrow cells; test: SCD gene correction by ddPCR of gDNA, bulk bone marrow cells treated ex vivo; format: cell-based; conditions: for effect of added factor on gene editing frequencies by ddPCR: bulk bone marrow and HSPCs (lin−) treated with tcPNA 2 nanoparticles, particularly in HSPCs; for effect of DNA repair modulator on editing vs NP only: PLA-HPG nanoparticles encapsulating tcPNA 2 or sertcPNA 2
Description: Bulk mouse bone marrow cells were treated with PLGA NPs encapsulating tcPNA 1A, 2A, 3A and correcting donor DNA molecules.
Bulk bone marrow cells were treated with PLGA NPs encapsulating modified (tc PNA 2A) and unmodified versions (tc PNA 2) of PNA sequence. 72 hours after treatment, gDNA was isolated and analyzed for editing frequencies by ddPCR.
(§1) Bulk bone marrow cells were treated with PLGA NPs encapsulating unmodified PNA (tcPNA 2). 72 hours after treatment HSPCs, were isolated from bulk cells via negative and positive selection, and gene editing all three populations was compared.
(§2) Bulk bone marrow and HSPCs (lin^−) were treated with tcPNA 2 nanoparticles and combinations of stem cell factor, erythropoietin, and plerixafor. 72 hours after treatment, gDNA was isolated and analyzed for editing frequencies by ddPCR.
Bulk bone marrow cells were treated with tcPNA 2 encapsulated into poly(lactic-co-glycolic acid) (PLGA), or poly(lactic acid)PLA-HPG.
Nanoparticles made from poly(lactic acid) (PLA) conjugated to hyperbranched polyglycerols (HPG), referred to as PLA-HPG, were synthesized using a double emulsion solvent evaporation protocol. Briefly, 50 mg of PLA-HPG was dissolved in 2.4 mL of ethyl acetate and 0.6 mL of DMSO. PNA and donor DNA were heated to 60° C. for 10 minutes, mixed, and immediately added dropwise to the polymer solution under vortex. This 1st emulsion (water-in-oil) was sonicated 3 times at 38% amplitude for 10 seconds using a probe sonicator. Following sonication, the primary emulsion was added dropwise to 4 mL of diH2O, forming the second emulsion (water-in-oil-in-water), which was subsequently sonicated as above. Nanoparticles were further diluted in 20 mL of diH2O. Residual organic solvent was removed using a rotovap. After solvent removal, nanoparticles were collected via centrifugation in Amicon 100K filter tubes. Following a second washing step, nanoparticles were resuspended in diH2O, frozen, and stored as 100 μl aliquots containing 2 mg of nanoparticles. Where indicated, low molecular weight PLA-HPG (P7H9-2) or high molecular weight PLA-HPG (P7H3-18) was used.
Bulk bone marrow cells were treated with PLGA or PLA-HPG nanoparticles encapsulating unmodified (tcPNA 2) and serine modified (^sertcPNA 2) along with correcting donor DNA molecules.
Experiments were designed to test the effects of DNA repair inhibition on gene editing. Bulk bone marrow cells were treated with PLA-HPG nanoparticles encapsulating tcPNA 2 or ^sertcPNA 2, with or without the addition of small molecule modulators of DNA repair: RS-1, RI-1, RI-2, B0-2, or SCR-7.

Berk hemizygous mice = test: In vivo gene editing in Berk hemizygous mice treated with nanoparticles; parameters: species or system mouse; conditions: nanoparticles encapsulating tcPNA 2 and donor DNA, intravenous
Excerpt: Experiments were designed to test the ability of tcPNA 2 to drive gene editing in vivo.
Berk hemizygous mice treated with nanoparticles encapsulating unmodified SCD-tcPNA 2: H-KKK-TTJJTJT-OOO-[…]-KKK-NH2 (SEQ ID NO:5) K indicates lysine; J, pseudoisocytosine (for C) for pH-independent triplex formation. O, 8-amino-2,6,10-trioxaoctanoic acid linkers connecting the Hoogsteen and Watson-Crick domains of the tcPNAs, serine modified bases (bold and underlined) along the Watson-Crick domain and donor DNA: […]

[2] = test system: SCD mutation (β-globin gene), CD117+ HSPCs; test: SCD gene correction by ddPCR of gDNA, CD117+ HSPCs; format: cell-based, mouse
Description: Bulk bone marrow cells were treated with PLGA NPs encapsulating tcPNA 1A, 2A, 3A and correcting donor DNA molecules. 72 hours after treatment, HSPCs were isolated by CD117+ selection. gDNA was harvested from these cells and assayed for gene correction via ddPCR.
as §1

[3] = test system: SCD mutation (β-globin gene), HSPCs (lin−); test: SCD gene correction by ddPCR of gDNA, HSPCs (lin−) isolated via negative selection; format: cell-based, mouse; conditions: PLGA NPs encapsulating tcPNA 2; 72 hours; comparison of three cell populations
Description: as §1, §2

[4] = test system: double-stranded DNA target (200 bp); test: PNA incubation with double-stranded DNA target, triplex band; format: binding; conditions: unmodified tcPNA 2 vs modified tcPNA 2A; both temperature conditions
Description: Modified (tcPNA 2A) and unmodified (tcPNA 2) PNAs were incubated with a double-stranded DNA target (200 bp) at indicated temperatures.

[5] = test system: Primary mouse bone marrow cells; test: Cytokine expression in primary mouse bone marrow cells after NP treatment; format: cell-based; conditions: PLGA NPs encapsulating tcPNA 1A and correcting donor DNA; 48 hours after treatment
Description: The toxicity and safety of PNA/donor DNA delivery using nanoparticles were investigated. Primary mouse bone marrow cells were treated with PLGA nanoparticles (NPs) encapsulating tcPNA 1A and correcting donor DNA. 48 hours after treatment cells were spun, media collected, and assayed for cytokine expression.

[6] = bulk bone marrow cells, 1 uM dose
[7] = bulk bone marrow cells, 10 uM dose
[8] = PLGA NPs encapsulating tcPNA 2, 72 hours, comparison of three cell populations

Compound `O=c1c2ccccc2nc(/C=C/c2cccnc2)n1Cc1ccccc1` [B0-2] has a gene editing frequencies ([1]; bulk bone marrow cells, PLA-HPG nanoparticles encapsulating tcPNA 2 or sertcPNA 2, with or without modulator of DNA repair) of ~12%.

`c1cc(CN2CCCNCCNCCCNCC2)ccc1CN1CCCNCCNCCCNCC1` [Plerixafor, plerixafor] was tested, and the “effect of added factor on gene editing frequencies by ddPCR” value ([1]; 72 hours) was “increased gene editing frequencies”.

With `O=C1C(Cl)=C(N2CCOCC2)C(=O)N1c1ccc(Cl)c(Cl)c1` [RI-1] the “effect of DNA repair modulator on editing vs NP only” value (“effect … vs NP only” for short) [1, 6] was “higher levels of editing” and the “effect … vs NP only” value [1, 7] was “reduced levels”.

For `O=C(Nc1ccc(Br)cc1)c1ccc(Br)c(S(=O)(=O)NCc2ccccc2)c1` [RS-1], the “effect … vs NP only” value [1, 6] was “reduced editing frequencies” and the “effect … vs NP only” value [1, 7] was “higher levels of editing”.

In the case of `O=c1[nH]c(=S)[nH]c(N=Cc2ccccc2)c1N=Cc1ccccc1` [SCR-7], the “effect … vs NP only” value [1, 6] is reported as “decreased PNA-mediated gene editing” and the “effect … vs NP only” value [1, 7] is reported as “decreased PNA-mediated gene editing”.

With SCF: stem cell factor, C-kit ligand the “effect of added factor on gene editing frequencies by ddPCR” value ([1]; 72 hours) was “increased gene editing frequencies”.

With “^sertcPNA 2: tc PNA 2 sequence (SEQ ID NO:5) modified with a hydroxymethyl (serine) group at the γ position along the Watson-Crick domain (TTNNTNTTCTCCTTAAACCTGTCTT; gamma-serine (hydroxymethyl) modified PNA backbone, chemistry not fully specified)” the “gene editing relative to unmodified tcPNA 2” value ([1]; bulk bone marrow cells, PLGA or PLA-HPG nanoparticles with donor DNA, even at lower NP doses) was “increased gene editing appreciably”.

“lys-lys-lys-TTJJTJT-OOO-TCTCCTTAAACCTGTCTT-lys-lys-lys (SEQ ID NO:5) (TTNNTNTTCTCCTTAAACCTGTCTT; PNA, lysine ends, OOO linker, chemistry not fully specified) [tcPNA 2, tail-clamp PNA oligomer targeting the β-globin gene]” was tested, and the “gene editing in vivo” value (Berk hemizygous mice) was “can Drive Gene Editing In Vivo”, the “gene editing by ddPCR, bulk population” value [1, 8] was “appreciable editing” and the “level of editing (correction of the SCD mutation) by ddPCR” value ([1]; bulk bone marrow cells, PLGA NPs, unmodified tcPNA 2 vs mini-PEG modified tcPNA 2A, 72 hours) was “highest level of editing”. For the same compound, the “gene editing by ddPCR, CD117+ population” value [2, 8] was “appreciable editing”, the “gene editing by ddPCR, HSPCs isolated via negative selection” value [3] was “highest levels of editing” and the “invasion of duplex DNA (triplex band)” value [4] was “superior invasion of duplex DNA”.

In the case of “tcPNA 1A: SEQ ID NO:14 tail-clamp PNA with alternating mini-PEG modified bases along the Watson-Crick domain (NNTNTTNCTTCTCCACAGGAGTCAG; alternating gamma mini-PEG modified PNA units, chemistry not fully specified)”, the inflammatory cytokine expression [5] is reported as “did not produce inflammatory cytokine expression”.

“tcPNA 2A: SEQ ID NO:5 tail-clamp PNA with alternating mini-PEG modified bases along the Watson-Crick domain (TTNNTNTTCTCCTTAAACCTGTCTT; alternating gamma mini-PEG modified PNA units, chemistry not fully specified)” was tested, and the “level of gene editing as measured by ddPCR (SCD gene correction)” value ([1]; bulk mouse bone marrow cells, PLGA NPs encapsulating tcPNA 1A, 2A, 3A and donor DNA, compared with each other) was “highest level of gene editing” and the “level of gene editing as measured by ddPCR (SCD gene correction)” value ([2]; CD117+ HSPCs isolated 72 hours after treatment, PLGA NPs encapsulating tcPNA 1A, 2A, 3A and donor DNA, compared with each other) was “highest level of gene editing”.

Reference: US12496357B2, “Compositions and methods for treating sickle cell disease” (Yale University, priority 2019, dated 2025)
